Drawing on DBAASP, this text covers MIC for five compounds.

Each structure is given as a SMILES string. Converted amounts (≈) assume the structure as drawn. Some results are limits rather than exact numbers.

Broadly, the MIC is the least concentration at which growth counts as inhibited.

Test systems include Acinetobacter baumannii; Escherichia coli 09-240; Escherichia coli 170; Escherichia coli 09-280; Escherichia coli 5509; Escherichia coli ML-35p.
What all share (experiment): ≥ marks a high value that may be exact or a test limit, other limits are often not marked, values filed in µg/mL are converted to µM
Assay [1] concerns Candida albicans ATCC 2002.
Assay [2] deals with Pseudomonas fluorescens ATCC 13525.
The subject of assay [3] is Bacillus subtilis ATCC 6633.
For assay [4], the system named is Staphylococcus aureus ATCC 2592.
For assay [5], the system named is Helicobacter pylori ATCC 43504.
For assay [6], the system named is Escherichia coli ATCC 25922.
The test system of assay [7] is Stenotrophomonas maltophilia.
The subject of assay [8] is Streptococcus mutans ATCC 10449.
In assay [9] the test system is Fusobacterium nucleatum NCTC 10562.
The subject of assay [10] is Pseudomonas aeruginosa PAO239.
In assay [11] the test system is Pseudomonas aeruginosa ATCC 27853.
Assay [12] relates to Staphylococcus aureus ATCC 25923.
Assay [13] relates to Candida albicans NCTC 3179.
The subject of assay [14] is Enterococcus faecalis NCTC 12697.
Assay [15] concerns Escherichia coli ATCC 25726.
The subject of assay [16] is Staphylococcus aureus ATCC 29213.
Assay [17] has as its system Staphylococcus aureus 01-001.
The test system of assay [18] is Pseudomonas aeruginosa ATCC 9027.
Assay [19] relates to Pseudomonas aeruginosa 3599.
The subject of assay [20] is Klebsiella pneumoniae 01-252.
Assay [21] concerns Pseudomonas aeruginosa 5106.
The test system of assay [22] is Acinetobacter baumannii 5821.
Assay [23] deals with Klebsiella pneumoniae 01-239.
Assay [24] relates to Enterobacter cloacae 14-262.
In assay [25] the test system is Enterobacter cloacae 06-267.
Assay [26] has as its system Staphylococcus aureus 06-051.
The test system of assay [27] is Staphylococcus aureus ATCC BAA-44.
In assay [28] the test system is Candida albicans NCYC 1467.
Assay [29] concerns Staphylococcus aureus ST1065.
Assay [30] has as its system Candida parapsilosis ATCC 22019.
The subject of assay [31] is Staphylococcus aureus NCTC 10788.
The test system of assay [32] is Staphylococcus aureus ATCC 43300.
Assay [33] relates to Enterococcus faecalis ATCC 29212.
Assay [34] has as its system Rhodococcus rhodochrous X15.
Assay [35] concerns Enterococcus faecium 091299.
Assay [36] relates to Bacillus licheniformis X39.
Assay [37] concerns Psychrobacter faecalis X29.
Assay [38] relates to Staphylococcus carnosus KHS.

Turning to `CC[C@H](C)[C@H](NC(=O)[C@H](CCCN=C(N)N)NC(=O)[C@H](CC(C)C)NC(=O)[C@H](C)NC(=O)[C@H](CO)NC(=O)CNC(=O)[C@H](CCSC)NC(=O)[C@@H](N)Cc1ccccc1)C(=O)N[C@@H](C)C(=O)N[C@@H](C)C(=O)N[C@@H](CCCCN)C(=O)N[C@H](C(=O)N[C@@H](CC(C)C)C(=O)N1CCC[C@H]1C(=O)N[C@@H](C)C(=O)N[C@@H](C)C(=O)N[C@@H](CC(C)C)C(=O)N[C@H]1CSSC[C@@H](C(=O)O)NC(=O)[C@H](CCCCN)NC(=O)[C@H](CCCCN)NC(=O)[C@H](Cc2ccccc2)NC(=O)[C@H]([C@@H](C)CC)NC(=O)[C@H](CCC(N)=O)NC1=O)C(C)C` [FMGSALRIAAKVLPAALCQIFKKC], the MIC in assay [1] was 19.4 µM (≈ 50 µg/mL); in [2], not below 38.8 µM; in assay [3], 2.42 µM (≈ 6.25 µg/mL); in assay [4], 2.42 µM (≈ 6.25 µg/mL).

Take `CSCC[C@H](NC(=O)CN)C(=O)N[C@@H](C)C(=O)N[C@@H](CO)C(=O)N[C@@H](CCCCN)C(=O)N[C@@H](C)C(=O)NCC(=O)N[C@@H](CO)C(=O)N[C@H](C(=O)N[C@@H](CC(C)C)C(=O)NCC(=O)N[C@@H](CCCCN)C(=O)N[C@H](C(=O)N[C@@H](C)C(=O)N[C@@H](CCCCN)C(=O)N[C@H](C(=O)N[C@@H](C)C(=O)N[C@@H](CC(C)C)C(=O)N[C@@H](CCCCN)C(=O)N[C@@H](C)C(=O)N[C@@H](C)C(=O)N[C@@H](CC(C)C)C(N)=O)C(C)C)C(C)C)C(C)C` [GMASKAGSVLGKVAKVALKAAL]: the MIC in [5] is 0.483 µM (≈ 1 µg/mL); in assay [6] it was 25 µM (≈ 51.7 µg/mL); in [7], 5.66 µM (≈ 11.7 µg/mL); in assay [8], 3.1 µM (≈ 6.42 µg/mL); in [9], 12.5 µM (≈ 25.9 µg/mL); in assay [10], 25 µM (≈ 51.7 µg/mL). Moreover, the MIC is 12.5 µM (≈ 25.9 µg/mL) in assay [11]; 11.3 µM (≈ 23.4 µg/mL) in the assay on Acinetobacter baumannii; 35.4 µM (≈ 73.2 µg/mL) in assay [12]; not below 50 µM in assay [13]; not below 100 µM in assay [14]; 12.5 µM (≈ 25.9 µg/mL) in [15].

In the case of `CC[C@H](C)[C@H](N)C(=O)N[C@@H](Cc1c[nH]c2ccccc12)C(=O)N[C@@H](CO)C(=O)N[C@@H](C)C(=O)N[C@H](C(=O)N[C@@H](Cc1c[nH]c2ccccc12)C(=O)N[C@@H](CO)C(=O)NCC(=O)N[C@H](C(=O)N[C@@H](CCCCN)C(=O)NCC(=O)N[C@@H](CC(C)C)C(=O)N[C@@H](CC(C)C)C(N)=O)[C@@H](C)CC)[C@@H](C)CC` [IWSAIWSGIKGLL], the MIC in assay [16] was 4 µM (≈ 5.77 µg/mL); in assay [17], 2 µM (≈ 2.89 µg/mL); in the assay with Escherichia coli 09-240, 30 µM (≈ 43.3 µg/mL); in assay [6], 15 µM (≈ 21.6 µg/mL); with Escherichia coli 170, not below 32 µM; in assay [18] it was 2 µM (≈ 2.89 µg/mL). In addition, the MIC in [19] was not below 32 µM; in [11], more than 32 µM; in assay [20], not below 32 µM; in [12], 1 µM (≈ 1.44 µg/mL); against Escherichia coli 09-280, not below 32 µM; in assay [21] it was not below 32 µM. The MIC was 14 µM (≈ 20.2 µg/mL) in [22]; not below 32 µM in [23]; not below 32 µM in assay [24]; not below 32 µM in assay [25]; 2 µM (≈ 2.89 µg/mL) in [26]; not below 32 µM in the assay on Escherichia coli 5509.

Regarding `CC[C@H](C)[C@H](NC(=O)[C@H](C)NC(=O)[C@H](CO)NC(=O)[C@@H](NC(=O)[C@H](C)NC(=O)[C@@H](NC(=O)[C@@H]1CCCN1C(=O)[C@@H](NC(=O)[C@H](CCSC)NC(=O)CNC(=O)[C@H](CC(C)C)NC(=O)[C@@H](N)CC(C)C)[C@@H](C)CC)C(C)C)[C@@H](C)CC)C(=O)N[C@@H](CO)C(=O)N[C@@H](C)C(=O)N[C@@H](CC(C)C)C(=O)N[C@@H](CO)C(=O)N[C@@H](CCCCN)C(=O)N[C@@H](CC(C)C)C(N)=O` [LLGMIPVAISAISALSKL], the MIC in assay [27] is not below 100 µM; in assay [28], not below 71.2 µM; in the assay with Escherichia coli ML-35p, not below 100 µM; in [6], more than 100 µM; in [29], not below 100 µM; in assay [30], not below 100 µM. In addition, the MIC was more than 100 µM in assay [11]; 17.8 µM (≈ 32 µg/mL) in [31]; more than 100 µM in [32]; 25 µM (≈ 44.9 µg/mL) in assay [12]; 100 µM (≈ 180 µg/mL) in assay [33].

With `CC[C@H](C)[C@H](NC(=O)[C@H](CC(C)C)NC(=O)[C@H](CC(C)C)NC(=O)[C@H](CC(=O)O)NC(=O)[C@H](CCCCN)NC(=O)[C@@H](NC(=O)[C@@H](NC(=O)CNC(=O)[C@H](CC(C)C)NC(=O)[C@H](CC(C)C)NC(=O)[C@@H](N)CO)[C@@H](C)O)C(C)C)C(=O)NCC(=O)N[C@@H](C)C(=O)NCC(=O)N[C@@H](CCCCN)C(=O)N[C@@H](CO)C(=O)N[C@@H](C)C(=O)N[C@@H](C)C(=O)N[C@@H](CCC(N)=O)C(=O)N[C@@H](CO)C(=O)N[C@H](C(=O)N[C@@H](CC(C)C)C(=O)N[C@@H](CCCCN)C(=O)NCC(=O)N[C@@H](CC(C)C)C(=O)N[C@@H](CO)C(=O)N[C@H]1CSSC[C@@H](C(=O)O)NC(=O)[C@H](CC(=O)O)NC(=O)[C@H](CCCCN)NC(=O)[C@H](CO)NC(=O)[C@H](CC(C)C)NC(=O)[C@H](CCCCN)NC1=O)C(C)C` [SLLGTVKDLLIGAGKSAAQSVLKGLSCKLSKDC], the MIC in [34] is 9.5 µM (≈ 31.4 µg/mL); in assay [35] it was not below 150 µM; in assay [1], 19 µM (≈ 62.8 µg/mL); in [36], not below 37.5 µM; in assay [12], 19 µM (≈ 62.8 µg/mL); in assay [37], 9.5 µM (≈ 31.4 µg/mL). This compound also yielded an MIC in [38] not below 150 µM.
